One series concerns HeLa cells. As to the kind of experiment: Uptake of fluorescein-labelled peptides by HeLa cells (flow cytometry). Type of series: cell-based, human. Particulars: FIG. 1B. The method, then: (§1) Conditionally immortalized mouse glomerular endothelial cells (mGEnC) were cultured as previously described (Rops et al. Kidney Int. 2004; 66 (6): 2193-201). HeLa cells were employed as a frequently used model cell line and were cultured in DMEM/F12 medium containing 10% fetal calf serum (FCS). For studying uptake, cells were incubated in their respective medium with 10% FCS containing fluorescein-labelled peptides at the indicated concentrations for 20 minutes at 37 °C. In some cases, cells were activated for 16 hours with 10 ng/ml mouse TNFα (Sigma), or co-incubated with Alexa Fluor 633-labeled transferrin (Invitrogen Molecular Probes). Subsequently, cells were washed with PBS and analysed using confocal laser-scanning microscopy on a TCS SP5 confocal microscope (Leica Microsystems), or detached by trypsin/EDTA and analysed on a FACSCalibur Flow cytometer (BD Biosciences) by measuring 20,000 cells.

Another series concerns mGEnC treated with TNFα. Description: Uptake by mGEnC after activation with TNFα. In kind it is cell-based. Particulars: 10 ng/ml mouse TNFα 16 hours. The protocol:
as §1
(§2) Conditionally immortalized mouse glomerular endothelial cells (mGEnC) were cultured as previously described (Rops et al. Kidney Int. 2004; 66 (6): 2193-201). Cells were incubated in their respective medium with 10% FCS containing fluorescein-labelled peptides at 5 μM for 20 minutes at 37 °C. In some cases, cells were activated for 16 hours with 10 ng/ml mouse TNFα (Sigma), or co-incubated with 100 μg/ml Alexa Fluor 633-labeled transferrin (Invitrogen Molecular Probes). Pre-treatment with ITLN-1 or control siPool siRNA (siTools Biotech) was performed according to the manufacturer's protocol. Subsequently, cells were detached with trypsin/EDTA and analysed by flow cytometry on a FACSCalibur Flow cytometer (BD Biosciences). For immunostaining, cells or 5-μm cryosections of mouse kidney were fixed for 10 minutes with 4% paraformaldehyde, and in the indicated cases permeabilized with 0.3% Triton X-100 in PBS. Subsequently, cells and cryosections were stained for 1 hour with anti-intelectin-1 (R&D Systems) or anti-LRP-1 (Abcam) antibodies, and after washing incubated for 1 hour with the appropriate Alexa Fluor-labelled secondary antibody (Invitrogen Molecular Probes). Cells and cryosections were analyzed by confocal laser-Scanning microscopy was performed using a TCS SP5 confocal microscope (Leica Microsystems).

A further series addresses T1, ITLN-1 (Mus musculus, UniProt O88310).
T1 construct: ITLN-1 siRNA versus control siRNA
Description: Uptake by mGEnC after downregulation of ITLN-1 with siRNA. Particulars: peptides at 5 μM, FIG. 2E. Type of series: cell-based. The method, then: as §2

In a further series the test system is mGEnC. Description: Uptake in multiple cell lines (Table 2): mGEnC. Particulars: fluorescein-labeled peptide, confocal microscopy, mGEnC (mouse). In kind it is cell-based. The method, then:
as §1
as §2, with “Subsequently, cells and cryosections were stained for 1 hour with anti-intelectin-1 (R&D Systems) or anti-LRP-1 (Abcam) antibodies, and after washing incubated for 1 hour with the appropriate Alexa Fluor-labelled secondary antibody (Invitrogen Molecular Probes).” left out

Another series relates to hGEnC. As to the kind of experiment: Uptake in multiple cell lines (Table 2): hGEnC. Type of series: cell-based. Particulars: fluorescein-labeled peptide, confocal microscopy, hGEnC (human).
A further series relates to EOMA. As to the kind of experiment: Uptake in multiple cell lines (Table 2): EOMA. Type of series: cell-based. To be noted: fluorescein-labeled peptide, confocal microscopy, EOMA (mouse).
For a further series, the system named is HUVEC. As to the kind of experiment: Uptake in multiple cell lines (Table 2): HUVEC. Particulars: fluorescein-labeled peptide, confocal microscopy, HUVEC (human). In kind it is cell-based.
The next series concerns Podocytes. As to the kind of experiment: Uptake in multiple cell lines (Table 2): Podocytes. In kind it is cell-based. To be noted: fluorescein-labeled peptide, confocal microscopy, Podocytes (mouse). The method, then:
as §1
as §2, with “Subsequently, cells and cryosections were stained for 1 hour with anti-intelectin-1 (R&D Systems) or anti-LRP-1 (Abcam) antibodies, and after washing incubated for 1 hour with the appropriate Alexa Fluor-labelled secondary antibody (Invitrogen Molecular Probes).” left out

The subject of another series is HeLa. Description: Uptake in multiple cell lines (Table 2): HeLa. In kind it is cell-based. Particulars: fluorescein-labeled peptide, confocal microscopy, HeLa (human). The method, then: as §1
as §2, with “Subsequently, cells and cryosections were stained for 1 hour with anti-intelectin-1 (R&D Systems) or anti-LRP-1 (Abcam) antibodies, and after washing incubated for 1 hour with the appropriate Alexa Fluor-labelled secondary antibody (Invitrogen Molecular Probes).” left out

Series [1] is described as follows: Biodistribution of Cy5.5-hLF in LPS-induced inflammation mouse model. In kind it is in vivo, C57BI/6 mice. Particulars: for organ with highest signal: LPS-treated and non-treated mice; for localization in the glomeruli: kidney of LPS-treated mice. The protocol:
At the start, 8- to 10-week-old C57BI/6 mice (Charles River) received an intraperitoneal injection with either 100 μl of 2 mg/kg LPS in 5% glucose solution, or only 5% glucose solution. After 24 hours, mice were injected with 50 μl of 200 μM Cy5.5-labelled peptide. Assuming a blood volume of 1.2 ml this would theoretically result in a concentration of ~8.5 μM in the circulation. After 4 hours, organs were perfused with phosphate buffer, followed by 4% PFA. Organs were removed and peptide distribution was analysed using the In Vivo Imaging System (IVIS; Perkin Elmer). Organs were then fixed by overnight incubation in 4% PFA, followed by overnight incubation in 30% sucrose. Subsequently, organs were frozen for analysis by confocal laser-Scanning microscopy using a TCS SP5 confocal microscope (Leica Microsystems). Glomerular and tubular regions were selected in microscopical pictures from which the mean fluorescence intensity was determined by ImageJ software.

Series [2] can be described thus: Biodistribution of full-length lactoferrin, lactoferricin and hLF-6 in LPS-challenged mice (IVIS). Type of series: in vivo. To be noted: fluorescent label, i.v., 2 h. The method, then:
Lactoferrin and lactoferricin are cloned in an expression plasmid containing the C-terminal Sortase-sequence protein-LPETG-HHHHHH. LPETGHHHHHH is SEQ ID NO: 98. Next, the protein is expressed overnight in E. coli and purified from sonicated bacterial cell lysates by Ni-NTA beads using 400 mM imidazole to elute the proteins. After overnight dialysis, full-length lactoferrin and hLF-6 are labelled by means of a Sortase exchange reaction on the C-terminus with a fluorescent dye (Alexa647 or Cy5.5) for 2 h at 4 °C using a fluorescently labelled donor peptide (formula:biotin-GSSG-LPETG-label or biotin-GSSG-LPETG-PEG40k-label) as substrate GSSGLPETG is SEQ ID NO: 99. Excess donor peptide is removed by means of streptavidin binding of the biotin tag on the N-terminus of the donor peptide. Next, the purified labelled protein/peptide is injected into LPS-challenged mice via intravenous injection in the tail vein. Mice are sacrificed after 2 h, and organs harvested for imaging by IVIS. Biodistribution is quantified for each organ, and relative distribution is shown.

The test system of series [3] is mouse glomerular endothelial cells (mGEnC). Description: Uptake of fluorescein-labelled peptides by mGEnC (flow cytometry). To be noted: different concentrations, 20 minutes at 37 °C, FIG. 1A. Type of series: cell-based. The method, then: as §1
For series [4], the system named is heparan sulphate on mGEnC. As to the kind of experiment: Peptide uptake by mGEnC after removal of heparan sulphate (heparinases). In kind it is cell-based, mouse. To be noted: 5 μM, FIG. 1D. The protocol: (D) Digestion of heparan sulphate from the cell surface has a limited effect on the uptake of lactoferrin-derived peptides (5 μM). Percentage of uptake for heparan sulphate-cleaved compared to undigested cells is shown.
as §1
In order to further substantiate that uptake of hLF occurred by a mechanism different of the one typically observed for CPPs, we addressed the role of heparan sulphate proteoglycans (HSPGs).

Series [5] can be described thus: Biodistribution of 111In-DOTA-labelled hLF variants after intravenous injection. Particulars: i.v., 4 hours. In kind it is in vivo, C57BI/6 mice. The protocol:
Female and male 10-12-weeks-old C57BI/6 mice (Charles River) were injected via the tail vein with 50 μl of 200 μM 111 In-DOTA-labelled hLF peptides. […] Organs were collected 4 hours after injection, and radioactivity was measured in a gamma-counter. The percentage injected dose per gram of tissue (% ID/gram) was determined for each tissue and ratios between organs were calculated.

Residues, ends and D or L forms follow the SMILES beside them. *: point of attachment. DOTA = O=C(O)CN1CCN(CC(=O)O)CCN(CC(=O)*)CCN(CC(=O)O)CC1

T1 sequence (O88310 19-298): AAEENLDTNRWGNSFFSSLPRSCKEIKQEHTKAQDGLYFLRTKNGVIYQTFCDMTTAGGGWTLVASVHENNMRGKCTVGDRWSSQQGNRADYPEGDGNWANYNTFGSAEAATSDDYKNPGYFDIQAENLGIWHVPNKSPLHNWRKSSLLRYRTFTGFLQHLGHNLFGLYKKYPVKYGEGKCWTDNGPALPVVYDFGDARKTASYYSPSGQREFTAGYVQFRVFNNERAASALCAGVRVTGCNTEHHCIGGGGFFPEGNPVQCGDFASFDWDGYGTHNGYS

Turning to `CC[C@H](C)[C@H](NC(=O)[C@H](CCCCN)NC(=O)[C@@H](NC(=O)[C@H](CCC(N)=O)NC(=O)[C@@H](N)CCCNC(=N)N)[C@@H](C)CC)C(=O)N[C@@H](Cc1c[nH]c2ccccc12)C(=O)N[C@@H](Cc1ccccc1)C(=O)N[C@@H](CCC(N)=O)C(=O)N[C@@H](CC(N)=O)C(=O)N[C@@H](CCCNC(=N)N)C(=O)N[C@@H](CCCNC(=N)N)C(=O)N[C@@H](CCSC)C(=O)N[C@@H](CCCCN)C(=O)N[C@@H](Cc1c[nH]c2ccccc12)C(=O)N[C@@H](CCCCN)C(=O)N[C@@H](CCCCN)C(N)=O` [penetratin, reference compound], in the series on HeLa cells, the “uptake in HeLa cells” value is listed as “show uptake”. Further, the “uptake after TNFα treatment by confocal microscopy” value in the series with mGEnC treated with TNFα is reported as “barely detectable”. The “increase of uptake after TNFα treatment” value with mGEnC treated with TNFα (5 μM, FIG. 1E) is given as 50-100%. For the same molecule, the “uptake after ITLN-1 siRNA compared to control siRNA” value (“uptake … compared to control siRNA” below) on ITLN-1 is on record as “not affected”. Moreover, the “Uptake (Table 2)” value with mGEnC is “Low”; in the series with hGEnC, “Low”; in the series on EOMA it was “Low”; in the series on HUVEC, “High”; in the series with Podocytes it was “High”; with HeLa it was “High”.
For the molecule “Cy5.5-KCFQWQRNMRKVRGPPVSCIKR-NH2 ({Cy5.5}-KCFQWQRNMRKVRGPPVSCIKR-NH2; cysteine pairing not given here) [Cy5.5-hLF]”, the “organ with highest signal” value in [1] (IVIS) was “predominant distribution in kidney and liver”. The “organ with highest signal” value in [1] (IVIS, listed as Cy5.5-labeled hLF) is listed as “highest signal for the peptide was present in the kidneys, followed by the liver”. The “biodistribution to the kidney with LPS-induced inflammation” value in [1] (IVIS, i.v., 4 hours, LPS-treated mice, FIG. 4A) is reported as “increase biodistribution to the kidney”. In [1] (all injected mice), the “urinary excretion (urine colour)” value is “Urine was coloured by excreted Cy5.5-labelled peptide in all mice”. In series [1] (confocal microscopy, FIG. 4B), the “fluorescence in liver, lung and spleen” value is given as “much lower fluorescence”; the “localization to the tubules, LPS-treated versus untreated” value was “similar”; the “localization in the glomeruli” value is listed as “in glomeruli only in LPS-treated mice”. The “localization in the glomeruli” value in series [1] (confocal microscopy, FIG. 4B, listed as Cy5.5-labeled hLF) was “clearly pronounced”. Further, in series [1] (histology of cryosections), the “detection in the liver” value is “singular cells appeared weakly positive” and the “detection in the spleen” value is “could hardly be detected”.
In the case of RKVRGPPVSCIKRDS [hLF-6], in series [2], the “accumulation in the kidney compared to lactoferrin and lactoferricin” value is given as “significantly greater accumulation in the kidney”.
With “KCLRWQNEMRKVGGPPLSCIKR [mLF, mouse variant of hLF]”, in series [3], the “uptake in mGEnC” value is “uptake occurred similarly to hLF”. The “uptake in HeLa cells” value in the series on HeLa cells is “only a minimal uptake and not”. In addition, the “decrease in uptake after removal of heparan sulphate” value in [4] is recorded as ~ 20%. Also, the “effect of TNFα treatment on uptake” value in the series with mGEnC treated with TNFα is reported as “increased uptake”. In the series with ITLN-1, the “uptake … compared to control siRNA” value was “reduced uptake”. Besides, the “Uptake (Table 2)” value with mGEnC was “High”; in the series on hGEnC, “High”; in the series on EOMA, “High”; in the series with HUVEC it was “High”; in the series with Podocytes it was “High”; in the series with HeLa, “Low”.
Turning to “transferrin: Alexa Fluor 633-labeled transferrin, marker for clathrin-mediated endocytosis [reference compound]”, the “effect of TNFα treatment on uptake” value in the series on mGEnC treated with TNFα was “not significantly affected”. In addition, in the series with ITLN-1, the “uptake … compared to control siRNA” value is “not affected”.
As for `CC(C)[C@H](NC(=O)[C@H](CCCCN)NC(=O)[C@H](CCCNC(=N)N)NC(=O)CN1CCN(CC(=O)O)CCN(CC(=O)O)CCN(CC(=O)O)CC1)C(=O)N[C@@H](CCCNC(=N)N)C(=O)NCC(=O)N1CCC[C@H]1C(=O)N1CCC[C@H]1C(N)=O` [^111In-DOTA-hLF-7, ^111In-DOTA-RKVRGPP-NH2, metal not drawn] ({DOTA}-RKVRGPP-NH2), in series [5], the “kidney/liver ratio (in words)” value was “still increased”. Also, in [5] (FIG. 5), the “localization to the kidney” value is “reduced distribution to the kidney”; the “localization to the liver and spleen” value is “reduced distribution to the liver and spleen”.
